The results in this text go back to ChEMBL document CHEMBL3045089, “Synthesis, spectral studies, antimicrobial and insect antifeedant activities of some substituted styryl 4-fluorophenyl ketones” (2011).

Assay [1] deals with Achaea janata. The assay is described as follows: Antifeedant activity against fourth instar larvae of Achaea janata L. on Riclmus cammunls leaves assessed as number of leaf discs consumed in 24 hrs at 200 ppm at 26 +/- 1 degC. In kind it is functional.
For the next assay, the system named is Aspergillus niger. As to the kind of experiment: Antifungal activity against Aspergillus niger assessed as inhibition zone at 50 ug/ml measured after 72 hrs by drug dilution method. The format is functional, organism-based.
The next assay concerns Penicillium. As to the kind of experiment: Antifungal activity against Penicillium assessed as inhibition zone at 50 ug/ml measured after 72 hrs by drug dilution method. The format is functional, organism-based.
In a further assay the test system is Candida albicans. As to the kind of experiment: Antifungal activity against Candida albicans assessed as inhibition zone at 250 ug/ml measured after 72 hrs by disk diffusion method. The format is functional, organism-based.
The next assay has as its system Enterococcus faecalis. The assay is described as follows: Antibacterial activity against Enterococcus faecalis assessed as inhibition zone at 250 ug/ml measured after 24 to 45 hrs by disk diffusion method. In kind it is functional. A general note: A growth-free zone around the sample is the usual read-out of agar diffusion tests.
Another assay relates to Proteus vulgaris. The assay is described as follows: Antibacterial activity against Proteus vulgaris assessed as inhibition zone at 250 ug/ml measured after 24 to 45 hrs by disk diffusion method. The format is functional.
The test system of a further assay is Klebsiella. As to the kind of experiment: Antibacterial activity against Klebsiella species assessed as inhibition zone at 250 ug/ml measured after 24 to 45 hrs by disk diffusion method. The format is functional.
The test system of the next assay is Pseudomonas. The assay is described as follows: Antibacterial activity against Pseudomonas assessed as inhibition zone at 250 ug/ml measured after 24 to 45 hrs by disk diffusion method. The format is functional.
In a further assay the test system is Staphylococcus aureus. The assay is described as follows: Antibacterial activity against Staphylococcus aureus assessed as inhibition zone at 250 ug/ml measured after 24 to 45 hrs by disk diffusion method. In kind it is functional.
The test system of another assay is Escherichia coli. The assay is described as follows: Antibacterial activity against Escherichia coli assessed as inhibition zone at 250 ug/ml measured after 24 to 45 hrs by disk diffusion method. The format is functional.
Assay [2] relates to Achaea janata. The assay is described as follows: Antifeedant activity against fourth instar larvae of Achaea janata L. on Riclmus cammunls leaves assessed as number of leaf discs consumed in 24 hrs at 150 ppm at 26 +/- 1 degC. The format is functional.
Assay [3] concerns Achaea janata. As to the kind of experiment: Antifeedant activity against fourth instar larvae of Achaea janata L. on Riclmus cammunls leaves assessed as number of leaf discs consumed in 24 hrs at 100 ppm at 26 +/- 1 degC. The format is functional.
Assay [4] has as its system Achaea janata. As to the kind of experiment: Antifeedant activity against fourth instar larvae of Achaea janata L. on Riclmus cammunls leaves assessed as number of leaf discs consumed in 24 hrs at 50 ppm at 26 +/- 1 degC. The format is functional.

Molecules are shown by their SMILES. Activity calls are given as the source filed them. The rule behind the calls is not given here.

Regarding `O=C(/C=C/c1cccc([N+](=O)[O-])c1)c1ccc(F)cc1`, the Activity in the assay on Achaea janata [1] is given as 10; with Proteus vulgaris it was 13 mm; in the assay with Klebsiella, 13 mm; with Pseudomonas, 13 mm; in the assay on Staphylococcus aureus, 13 mm; with Escherichia coli, 13 mm. The result with Aspergillus niger, in the assay with Penicillium, in the assay with Candida albicans and in the assay with Enterococcus faecalis was inactive.

With `CN(C)c1ccc(/C=C/C(=O)c2ccc(F)cc2)cc1`, the Activity with Achaea janata [1] amounted to 9; in the assay with Proteus vulgaris it was 13 mm; with Klebsiella, 13 mm; with Pseudomonas it was 20 mm; in the assay with Staphylococcus aureus, 20 mm; in the assay with Escherichia coli it was 20 mm. Further, the inhibition entry with Aspergillus niger and in the assay on Penicillium was “Active” in each case. In addition, the result with Enterococcus faecalis was inactive.

With `O=C(/C=C/c1ccccc1)c1ccc(F)cc1`, the Activity in the assay with Achaea janata [1] is reported as 8; in the assay with Proteus vulgaris it was 8 mm; in the assay on Klebsiella, 8 mm; in the assay on Pseudomonas, 8 mm; in the assay on Staphylococcus aureus it was 13 mm; in the assay with Escherichia coli it was 8 mm. The result in the assay with Aspergillus niger, in the assay on Penicillium, with Candida albicans and in the assay with Enterococcus faecalis was inactive.

For `O=C(/C=C/c1cccc(Cl)c1)c1ccc(F)cc1`, the Activity came out at 0.4 in the assay on Achaea janata [1]; 13 mm in the assay with Proteus vulgaris; 13 mm in the assay on Klebsiella; 13 mm in the assay with Pseudomonas; 13 mm with Staphylococcus aureus; 13 mm in the assay with Escherichia coli. Further, the outcome in the assay on Candida albicans and in the assay on Enterococcus faecalis was inactive.

As for `O=C(/C=C/c1ccc(Br)cc1)c1ccc(F)cc1`, the Activity in the assay on Achaea janata [1] is on record as 0.5; in the assay with Enterococcus faecalis, 20 mm; with Proteus vulgaris, 13 mm; with Klebsiella it was 20 mm; in the assay on Pseudomonas it was 13 mm; in the assay on Staphylococcus aureus, 20 mm. Further, in the assay on Escherichia coli, the Activity is 20 mm. Further, the inhibition entry in the assay on Aspergillus niger, in the assay on Penicillium and in the assay with Candida albicans was “Active” throughout.

As to `O=C(/C=C/c1ccccc1[N+](=O)[O-])c1ccc(F)cc1`, the Activity was found to be 12 in the assay with Achaea janata [1]; 13 mm in the assay with Proteus vulgaris; 13 mm in the assay on Klebsiella; 13 mm with Pseudomonas; 13 mm in the assay on Staphylococcus aureus; 13 mm with Escherichia coli. For the same compound, the outcome with Aspergillus niger, in the assay on Penicillium, in the assay on Candida albicans and in the assay on Enterococcus faecalis was inactive.

Consider `Cc1ccc(/C=C/C(=O)c2ccc(F)cc2)cc1`, for which the Activity amounted to 9 in the assay on Achaea janata [1]; 8 mm in the assay with Proteus vulgaris; 8 mm with Klebsiella; 8 mm with Pseudomonas; 13 mm in the assay on Staphylococcus aureus; 8 mm with Escherichia coli. The result in the assay on Aspergillus niger and in the assay on Enterococcus faecalis was inactive.

As to `COc1ccc(/C=C/C(=O)c2ccc(F)cc2)cc1`, the Activity in the assay with Achaea janata [1] is on record as 9; in the assay with Enterococcus faecalis, 20 mm; with Proteus vulgaris, 13 mm; with Klebsiella it was 13 mm; with Pseudomonas it was 13 mm; with Staphylococcus aureus it was 13 mm. Besides, the Activity in the assay with Escherichia coli worked out at 13 mm. Further, the inhibition entry with Penicillium and with Candida albicans was “Active” throughout.

Take `O=C(/C=C/c1ccc(Cl)cc1)c1ccc(F)cc1`: the Activity is 0 with Achaea janata [2]; 0.05 in the assay on Achaea janata [3]; 0.1 with Achaea janata [4]; 0.1 in the assay with Achaea janata [1]; 13 mm in the assay with Proteus vulgaris; 13 mm in the assay with Klebsiella. Moreover, the Activity in the assay on Pseudomonas, in the assay on Staphylococcus aureus and with Escherichia coli was 13 mm throughout. The outcome with Aspergillus niger, with Penicillium and in the assay on Enterococcus faecalis was inactive.
